From US20170334941A1, “2',2'-DIHALO NUCLEOSIDE ANALOGS FOR TREATMENT OF THE FLAVIVIRIDAE FAMILY OF VIRUSES AND CANCER” (COCRYSTAL PHARMA, INC., priority 2014, published 2017)
Where two headings read alike, the source gives them in different places.

Columns and labels:
[1] = Cellular toxicity assay in human PBM cells; format: cell-based; details: read-out: Cytotoxicity, CC50
Protocol: (§1) The toxicity of the compounds was assessed in Vero, human PBM, CEM (human lymphoblastoid), MT-2, and HepG2 cells, as described previously (see Schinazi R. F., Sommadossi J.-P., Saalmann V., Cannon D. L., Xie M.-Y., Hart G. C., Smith G. A. & Hahn E. F. Antimicrob. Agents Chemother. 1990, 34, 1061-67). Cycloheximide was included as positive cytotoxic control, and untreated cells exposed to solvent were included as negative controls. The cytotoxicity IC50 was obtained from the concentration-response curve using the median effective method described previously (see Chou T.-C. & Talalay P. Adv. Enzyme Regul. 1984, 22, 27-55; Belen'kii M. S. & Schinazi R. F. Antiviral Res. 1994, 25, 1-11).

human PBM cells = test: Cellular toxicity assay in human PBM cells; format: cell-based; details: Human PBM cells
Protocol: as §1

[2] = Cellular toxicity assay in Vero cells; format: cell-based; details: African green monkey, read-out: Cytotoxicity, CC50
Protocol: as §1

Vero cells = test: Cellular toxicity assay in Vero cells; format: cell-based
Protocol: as §1

[3] = Cytotoxicity in HCV replicon assay (ΔCt rRNA); format: cell-based; details: human, Huh-7 Clone B cells containing HCV GT 1b replicon RNA, Huh-7 cells
Protocol: The HCV replicon assay was carried out as described in Stuyver L et al., Ribonucleoside analogue that blocks replication or bovine viral diarrhea and hepatitis C viruses in culture. Antimicrob. Agents Chemother. 2003, 47, 244-254. Huh 7 Clone B cells containing HCV Replicon RNA were seeded in a 96-well plate at 5000 cells/well, and the compounds tested at 10 μM in triplicate immediately after seeding. Following five days incubation (37° C., 5% CO2), total cellular RNA was isolated by using versaGene RNA purification kit from Gentra. Replicon RNA and an internal control (TaqMan rRNA control reagents, Applied Biosystems) were amplified in a single step multiplex Real Time RT-PCR Assay. The antiviral effectiveness of the compounds was calculated by subtracting the threshold RT-PCR cycle of the test compound from the threshold RT-PCR cycle of the no-drug control (ΔCt HCV). A ACt of 3.3 equals a 1-log reduction (equal to 90% less starting material) in Replicon RNA levels. The cytotoxicity of the compounds was also calculated by using the ΔCt rRNA values. 2′-C-Me-C was used as the positive control. […]

[4] = tested on: CEM (human lymphoblastoid) cells; test: Cellular toxicity assay in CEM cells; format: cell-based
Protocol: as §1

[5] = tested on: HCV GT 1b replicon (Huh-7 cells); test: HCV replicon assay; format: cell-based; details: Hepatitis C virus, GT1B
Protocol: The HCV replicon assay was carried out as described in Stuyver L et al., Ribonucleoside analogue that blocks replication or bovine viral diarrhea and hepatitis C viruses in culture. Antimicrob. Agents Chemother. 2003, 47, 244-254. Huh 7 Clone B cells containing HCV Replicon RNA were seeded in a 96-well plate at 5000 cells/well, and the compounds tested at 10 μM in triplicate immediately after seeding. Following five days incubation (37° C., 5% CO2), total cellular RNA was isolated by using versaGene RNA purification kit from Gentra. Replicon RNA and an internal control (TaqMan rRNA control reagents, Applied Biosystems) were amplified in a single step multiplex Real Time RT-PCR Assay. The antiviral effectiveness of the compounds was calculated by subtracting the threshold RT-PCR cycle of the test compound from the threshold RT-PCR cycle of the no-drug control (ΔCt HCV). A ACt of 3.3 equals a 1-log reduction (equal to 90% less starting material) in Replicon RNA levels. The cytotoxicity of the compounds was also calculated by using the ΔCt rRNA values. 2′-C-Me-C was used as the positive control. To determine EC90 and IC50 values (using methods described in Reed I J & Muench H, A simple method or estimating fifty percent endpoints. Am. J. Hyg. 27: 497, 1938), ΔCt: values were first converted into fraction of starting material (Applied Biosystems Handbook) and then were used to calculate the % inhibition.

[6] = Cellular toxicity assay in CEM cells; format: cell-based, human; details: human, read-out: Cytotoxicity, CC50
Protocol: as §1

## CC(C)OC(=O)[C@H](C)NP(=O)(OC[C@H]1O[C@@H](n2ccc(N)nc2=O)C(Cl)(Cl)[C@@H]1O)Oc1ccccc1 (stereo partly drawn) [Compound 23, (2S)-isopropyl 2-(((((2R,3R,5R)-5-(4-amino-2-oxopyrimidin-1(2H)-yl)-4,4-dichloro-3-hydroxytetrahydrofuran-2-yl)methoxy)(phenoxy)phosphoryl)amino)propanoate]
[1]; Human PBM cells
  CC50: < 1000 nM
Human PBM cells
  % inhibition at maximum concentration evaluated: 91%
[2]
  CC50: < 1000 nM
Vero cells
  % inhibition at maximum concentration evaluated: 101%
[3]
  CC50 at 5 days: > 10 µM
[4]
  % inhibition at maximum concentration evaluated: (−86 @ 100) %
[5]; Huh-7
  EC50: 100 to 1000 nM
  EC90: 100 to 1000 nM

## CC(C)OC(=O)[C@H](C)NP(=O)(OC[C@H]1O[C@@H](n2ccc(=O)[nH]c2=O)C(Cl)(Cl)[C@@H]1O)Oc1ccccc1 (stereo partly drawn) [Compound 18, (2S)-isopropyl 2-(((((2R,3R,5R)-4,4-dichloro-5-(2,4-dioxo-3,4-dihydropyrimidin-1(2H)-yl)-3-hydroxytetrahydrofuran-2-yl)methoxy)(phenoxy)phosphoryl)amino)propanoate]
[1]; Human PBM cells
  CC50: > 100000 nM
Human PBM cells
  % inhibition at maximum concentration evaluated: 25%
[2]
  CC50: > 100000 nM
Vero cells
  % inhibition at maximum concentration evaluated: 2.3%
[6]
  CC50: > 100 µM
[4]
  % inhibition at maximum concentration evaluated: 17%

## Nc1ccn([C@@H]2O[C@H](CO)[C@@H](O)C2(Cl)Cl)c(=O)n1 [Compound 22, 4-amino-1-((2R,4R,5R)-3,3-dichloro-4-hydroxy-5-(hydroxymethyl)tetrahydrofuran-2-yl)pyrimidin-2(1H)-one]
[1]; human, human PBM cells
  CC50: < 1000 nM
Human PBM cells
  % inhibition at maximum concentration evaluated: 82%
[2]
  CC50: < 1000 nM
Vero cells
  % inhibition at maximum concentration evaluated: 101%
[3]
  CC50 at 5 days: > 10 µM
[6]; CEM lymphoblastoid cells
  CC50: < 1 µM
[4]
  % inhibition at maximum concentration evaluated: 87%
[5]; HCV GT 1b replicon, Huh-7 cells, read-out: EC50
  EC50: > 10000 nM
[5]; HCV GT 1b replicon, Huh-7 cells, read-out: EC90
  EC90: > 10000 nM

## O=c1ccn(C2OC(CO)C(O)C2(Cl)Cl)c(=O)[nH]1 (centres unmarked) [Compound 17]
Human PBM cells
  % inhibition at maximum concentration evaluated: −11%
Human PBM cells; read-out: Cytotoxicity, CC50
  CC50: > 100 µM
Vero cells
  % inhibition at maximum concentration evaluated: 1.4%
Vero cells; read-out: Cytotoxicity, CC50
  CC50: > 100 µM
[4]
  % inhibition at maximum concentration evaluated: −1.9%
[4]; read-out: Cytotoxicity, CC50
  CC50: > 100 µM
